From patent US12521393B2, “Cytotoxicity targeting chimeras for CCR2-expressing cells” (GLAXOSMITHKLINE INTELLECTUAL PROPERTY DEVELOPMENT LIMITED, priority 2021, dated 2026)
Several values for one entry are separate records, joined by “and”; a condition that tells them apart may be missing. Identical values can stand only once.

How the values were obtained:
[1] = target: T1, CHOK1 cells engineered to overexpress human CCR2 (Homo sapiens, UniProt P41597); assay: Antibody dependent cellular cytotoxicity (ADCC) reporter assay (Example 199); format: cell-based; conditions: with anti-cotinine antibody (SEQ ID NO: 11/12), Jurkat FcγRIIIa NFAT-luciferase reporter cells, 12-18 hours, EC50 in molar, average or individual runs; for EC50: read-out: ADCC Reporter Assay pEC50 (converted)
T1 construct: expressed in transfected cells; host or cells: CHOK1
Protocol: An antibody dependent cellular cytoxocity reporter assay was conducted using the following four assay components: (i) ARM compound of Formula (I) targeting CCR2 (concentrations ranging from […] to 10 μM) (ii) anti-cotinine antibody having a heavy chain sequence of SEQ ID NO: 11 and a light chain sequence of SEQ ID NO: 12 (rabbit variable region with human IgG1 Fc domain containing a DE mutation (S239D/1332E)) (concentrations ranging from 0.01 μg/mL to 200 μg/mL); (iii) target cells: CHOK1 cells engineered to overexpress either human CCR2 (typically 1000-20,000 cells per well) and (iv) reporter cells: Jurkat cells engineered to express FcγRIIIa with the reporter gene luciferase under the control of the NFAT promoter (typically 3000-75,000 cells per well). Reagents were combined in a final volume of 20 μL in a 384-well tissue culture treated plate. All four assay components were incubated together for about 12-18 hours. Thereafter, BioGlo Detection reagent (Promega) was added to the wells to lyse the cells and provide a substrate for the luciferase reporter protein. Luminescence signal was measured on a microplate reader and signal: background was calculated by dividing the signal of a test well by the signal obtained when no heterobivalent compound of Formula (I) was added. EC50 calculations were done using Graphpad Prism Software, specifically a nonlinear regression curve fit (Y=Bottom+(Top−Bottom)/(1+10A((LogEC50−X)*HillSlope))).
ARMs compounds of Formula (I) of the invention were tested for ADCC activity in the above assay in or more experimental runs and the results are shown in Table 3 below. Potency of the compounds of Formula (I) of the invention is reported as a pEC50 value. The pEC50 value is the negative log of the EC50 value, wherein the EC50 value is the half maximal effective concentration measured in molar (M). For compounds tested in more than one experimental run, the pEC50 value is reported as an average.

[2] = tested on: endogenous target monocytes in human PBMC; assay: PBMC ex vivo monocyte depletion flow cytometry assay (Example 200); format: cell-based; conditions: with anti-cotinine antibody (SEQ ID NO: 11/12), 18-24 hours, EC50 in molar; for EC50: read-out: Ex Vivo Depletion Assay pEC50 (converted)
Outline: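 Monocyte depletion is reported as pEC50, averaged or given individually across runs, and read by flow cytometry staining CD45, CD14 and CD4 with a viability dye. Compounds, diluted four-fold over 11 points from 1 mM DMSO stocks, were combined with 30 μg/mL Fc-enhanced anti-cotinine antibody and human PBMC, then incubated 18-24 h at 37° C.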

[3] = target: anti-cotinine antibody (SEQ ID NO: 11/12, rabbit variable region with human IgG1 Fc DE mutation); assay: SPR binding of anti-cotinine antibody to ARM compounds, Biacore T200, 37° C. (Example 202); conditions: SPR Biacore T200, 37° C., pH 7.4, antibody SEQ ID NO: 11/12 captured on protein A; Kd in molar
Outline: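 Antibody captured on a protein A chip; ARM compounds injected at 100 μL/min (200 s association, 2000 s dissociation), 3-fold 5-point series from 200 nM, at 37 °C in HEPES pH 7.4 buffer with 0.005% P20 and 1% DMSO. Double-referenced sensorgrams fit 1:1 for kon, koff, Kd (koff/kon), residence time (1/koff); pKd averaged across runs.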

[4] = Blood drug concentration analysis by LC-MS/MS after IV dosing with anti-cotinine antibody (Example 201); format: in vivo; conditions: C57 background, human CCR2 knock-in, mouse; hCCR2 knock-in mice, IV 0.1 mpk compound + 10 mpk anti-cotinine antibody, whole blood, 48 hours post-dose; read-out: Exposure of Compound of Formula (I) 48 hours post-dose
Protocol: After bleeding, each mouse was sacrificed by cervical dislocation. […] Flow Cytometry Analysis:
Samples were analyzed on Q-Trap. […] The total run time was 2 minutes.

[5] = tested on: CCR2 expressing cells (CD11b+Ly6c+Hi) in peripheral blood; assay: In vivo depletion assay, flow cytometry of peripheral blood (Example 201); set-up: species or system human CCR2 knock-in mice (C57 background); conditions: hCCR2 knock-in mice, IV 0.1 mpk compound + 10 mpk anti-cotinine antibody (SEQ ID NO: 13/14), peripheral blood at 48 hr
Outline: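 Mice dosed with compound formulated in saline/DMSO/PBS, with anti-cotinine antibody (rabbit variable region, mouse IgG2a Fc) where required, pre-incubated 30 min at room temperature. Terminal peripheral blood RBC-lysed, Fc-blocked, stained for CD45, CD3, CD11b, Ly6C, human CCR2 and 7AAD; percent depletion of CD11b+Ly6c+Hi cells determined by flow cytometry.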

| concentration at 48 h [4] [ng/mL] | SMILES | EC50 [1] | EC50 [2] [nM] | ADCC Reporter Assay pEC50 [1] | pKd of Antibody for ARM Compound of Formula (I) [3] | Ex Vivo Depletion Assay pEC50 [2] | % Depletion of CCR2 expressing cells [5] [%] |
| --- | --- | --- | --- | --- | --- | --- | --- |
|  | CC(C)N(C)[C@@H]1CC[C@H](N2CC[C@H](Nc3ncnc4ccc(C(F)(F)F)cc34)C2=O)[C@H](NC(=O)C2CCC(N3CCC(S(=O)(=O)NCCCCCCNC(=O)[C@H]4CC(=O)N(C)[C@@H]4c4cccnc4)CC3)CC2)C1 (single isomer, unassigned) [Example 149] | 0.251 nM | 0.251 |  |  |  |  |
|  | CC(C)N(C)[C@@H]1CC[C@H](N2CC[C@H](Nc3ncnc4ccc(C(F)(F)F)cc34)C2=O)[C@H](NC(=O)CCOCCOCCOCCOCCOCCOCCOCCOCCOCCOCCOCCOCCOCCOCCOCCOCCOCCOCCOCCOCCOCCOCCOCCNC(=O)C2CC(=O)N(C)C2c2cccnc2)C1 (stereo in doubt) [Example 43, (2R,3R)-N-(72-(((1R,2S,5R)-5-(isopropyl(methyl)amino)-2-((S)-2-oxo-3-((6-(trifluoromethyl)quinazolin-4-yl)amino)pyrrolidin-1-yl)cyclohexyl)amino)-72-oxo-3,6,9,12,15,18,21,24,27,30,33,36,39,42,45,48,51,54,57,60,63,66,69-tricosaoxadoheptacontyl)-1-methyl-5-oxo-2-(pyridin-3-yl)pyrrolidine-3-carboxamide] |  |  | 8.8 |  |  |  |
|  | CN1C(=O)C[C@H](C(=O)NCCCOCCCNC(=O)CCCC(=O)NC2CCC(C(=O)N[C@@H]3C[C@H](NC(C)(C)C)CC[C@@H]3N3CC[C@H](Nc4ncnc5ccc(C(F)(F)F)cc45)C3=O)CC2)[C@H]1c1cccnc1 (stereo partly drawn) [Example 22, N1-((1R,4r)-4-(((1R,2S,5R)-5-(tert-Butylamino)-2-((S)-2-oxo-3-((6-(trifluoromethyl)quinazolin-4-yl)amino)pyrrolidin-1-yl)cyclohexyl)carbamoyl)cyclohexyl)-N5-(3-(3-((2S,3S)-1-methyl-5-oxo-2-(pyridin-3-yl)pyrrolidine-3-carboxamido)propoxy)propyl)glutaramide] |  |  | 9 and 9.3 | 9.2495 | 9.2 |  |
|  | CC(C)N(C)[C@@H]1CC[C@H](N2CC[C@H](Nc3ncnc4ccc(C(F)(F)F)cc34)C2=O)[C@H](NC(=O)CCOCCOCCOCCOCCNC(=O)[C@H]2CC(=O)N(C)[C@@H]2c2cccnc2)C1 [Example 39, (2S,3S)-N-(15-(((1R,2S,5R)-5-(Isopropyl(methyl)amino)-2-((S)-2-oxo-3-((6-(trifluoromethyl)quinazolin-4-yl)amino)pyrrolidin-1-yl)cyclohexyl)amino)-15-oxo-3,6,9,12-tetraoxapentadecyl)-1-methyl-5-oxo-2-(pyridin-3-yl)pyrrolidine-3-carboxamide] | 15.8 nM | 2510 |  |  |  |  |
|  | CC(C)N(C)[C@@H]1CC[C@H](N2CC[C@H](Nc3ncnc4ccc(C(F)(F)F)cc34)C2=O)[C@H](N[C@H]2CC[C@@H](C(=O)NCCOCCOCCOCCOCCNC(=O)[C@H]3CC(=O)N(C)[C@@H]3c3cccnc3)CC2)C1 [Example 67] | 5.01 nM | 3.98 |  |  |  |  |
| 2.3 | CC(C)N(C)[C@@H]1CC[C@H](N2CC[C@H](Nc3ncnc4ccc(C(F)(F)F)cc34)C2=O)[C@H](NC(=O)[C@H]2CC[C@H](N3CCN(S(=O)(=O)C4CCN(C(=O)[C@H](C)NC(=O)[C@H]5CC(=O)N(C)[C@@H]5c5cccnc5)CC4)CC3)CC2)C1 [Example 70, (2S,3S)-N-((S)-1-(4-((4-((1R,4S)-4-(((1R,2S,5R)-5-(isopropyl(methyl)amino)-2-((S)-2-oxo-3-((6-(trifluoromethyl)quinazolin-4-yl)amino)pyrrolidin-1-yl)cyclohexyl)carbamoyl)cyclohexyl)piperazin-1-yl)sulfonyl)piperidin-1-yl)-1-oxopropan-2-yl)-1-methyl-5-oxo-2-(pyridin-3-yl)pyrrolidine-3-carboxamide] | 0.794 nM | 0.1 |  |  |  | 30.51 |
| 1 | CC(C)N(C)[C@@H]1CC[C@H](N2CC[C@H](Nc3ncnc4ccc(C(F)(F)F)cc34)C2=O)[C@H](NC(=O)[C@H]2CC[C@@H](N3CCN(S(=O)(=O)C4CCN(C(=O)[C@H](C)NC(=O)[C@H]5CC(=O)N(C)[C@@H]5c5cccnc5)CC4)CC3)CC2)C1 [Example 71, (2S,3S)-N-((S)-1-(4-((4-((1S,4R)-4-(((1R,2S,5R)-5-(Isopropyl(methyl)amino)-2-((S)-2-oxo-3-((6-(trifluoromethyl)quinazolin-4-yl)amino)pyrrolidin-1-yl)cyclohexyl)carbamoyl)cyclohexyl)piperazin-1-yl)sulfonyl)piperidin-1-yl)-1-oxopropan-2-yl)-1-methyl-5-oxo-2-(pyridin-3-yl)pyrrolidine-3-carboxamide] | 10 nM | 0.794 |  |  |  | 35.25 |
|  | CC(C)N(C)[C@@H]1CC[C@H](N2CC[C@H](Nc3ncnc4ccc(C(F)(F)F)cc34)C2=O)[C@H](NC(=O)CCCCCCCCC(=O)NCCCCCCNC(=O)[C@H]2CC(=O)N(C)[C@@H]2c2cccnc2)C1 [Example 166, N1-((1R,2S,5R)-5-(isopropyl(methyl)amino)-2-((S)-2-oxo-3-((6-(trifluoromethyl)quinazolin-4-yl)amino)pyrrolidin-1-yl)cyclohexyl)-N10-(6-((2S,3S)-1-methyl-5-oxo-2-(pyridin-3-yl)pyrrolidine-3-carboxamido)hexyl)decanediamide] | 0.501 nM | 1.26 |  |  |  |  |
|  | CC(C)N(CCOCCOCCC(=O)N[C@H]1CC[C@@H](C(=O)N[C@@H]2C[C@H](N(C)C(C)C)CC[C@@H]2N2CC[C@H](Nc3ncnc4ccc(C(F)(F)F)cc34)C2=O)CC1)C(=O)CCNC(=O)[C@H]1CC(=O)N(C)[C@@H]1c1cccnc1 [Example 178, (2S,3S)-N-(3-(Isopropyl(2-(2-(3-(((1S,4s)-4-(((1R,2S,5R)-5-(isopropyl(methyl)amino)-2-((S)-2-oxo-3-((6-(trifluoromethyl)quinazolin-4-yl)amino)pyrrolidin-1-yl)cyclohexyl)carbamoyl)cyclohexyl)amino)-3-oxopropoxy)ethoxy)ethyl)amino)-3-oxopropyl)-1-methyl-5-oxo-2-(pyridin-3-yl)pyrrolidine-3-carboxamide] | 0.501 nM and 0.126 nM | 0.398 |  |  |  |  |
|  | CC(C)N(C)[C@@H]1CC[C@H](N2CC[C@H](Nc3ncnc4ccc(C(F)(F)F)cc34)C2=O)[C@H](NC(=O)CCCC(=O)N[C@H]2CC[C@@H](CNC(=O)CCOCCNC(=O)[C@H]3CC(=O)N(C)[C@@H]3c3cccnc3)CC2)C1 [Example 179, N^1-((1R,2S,5R)-5-(isopropyl(methyl)amino)-2-((S)-2-oxo-3-((6-(trifluoromethyl)quinazolin-4-yl)amino)pyrrolidin-1-yl)cyclohexyl)-N^5-((1R,4S)-4-((3-(2-((2S,3S)-1-methyl-5-oxo-2-(pyridin-3-yl)pyrrolidine-3-carboxamido)ethoxy)propanamido)methyl)cyclohexyl)glutaramide] |  | 0.631 |  | 9.24 |  | 89.5 |
